Reference: PubChem BioAssay (NCI)
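Five compound concentrations were applied to cells in 96-well plates for 48 hours; endpoints were derived by simple linear interpolation of the resulting dose-response curve. TGI: total growth inhibition.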

Tested on: P388 leukemia
Experiment: NCI tumour cell line growth inhibition, 48 h

**Q.** For `CC[C@@]1(O)C(=O)OCc2c1cc1n(c2=O)Cc2cc3cc(O)ccc3nc2-1`, which TGI is on record?
**A.** The TGI was 1430 nM.
